Experimental data taken from patent publication US11535679B2, “Bispecific antibody against CD3 and CD20 in combination therapy for treating follicular lymphoma” (GENMAB A/S, priority 2020, dated 2022).

How the values were obtained:
SU-DHL-4 cells = assay type: cell-based, human; details: bendamustine alone, 0-20 μM, 48 hours
Method: (§1) Briefly, Human Burkitt lymphoma (Raji [ATCC, cat. no. CCL-86]) and DLBCL (SU-DHL-4 [Deutsche Sammlung von Mikroorganismen and Zellkulturen—DSMZ, cat. no. ACC-495]) cell lines were used as target cells. Cells were cultured in culture medium (RPMI 1640 with HEPES and L-Glutamine supplemented with 10% heat-inactivated donor bovine serum with iron, and 1% [v/v] penicillin/streptomycin) to which 2 mM L-glutamine, and 1 mM sodium pyruvate were added, at 37° C., 5% CO2. T cells, which were isolated from human healthy donor buffy coats by negative selection using the RosetteSep™ Human T Cell Enrichment Cocktail (Stemcell Technologies) followed by density centrifugation over a Ficoll gradient, both according to the manufacturer's instructions, were used as effector cells. Isolated cells were washed twice in phosphate buffered saline (PBS) and counted using acridine orange/propidium iodide (AO/PI) viability staining solution (Nexcelom Bioscience) on a Cellometer® Auto 2000 Cell Viability Counter. […] B-cell viability and T-cell activation were measured by flow cytometry (count of CD22-positive cells; expression of the activation markers CD69, CD25, and CD107 [LAMP-1] on CD4+ and CD8+ T cells). The percentage cytotoxicity was calculated as follows: % cytotoxicity=100−([cell countsample/cell countno antibody]×100%)

Raji cells = assay type: cell-based, human; details: bendamustine alone, 0-20 μM, 48 hours
Method: as §1

follicular lymphoma = details: double-refractory cases; cited from earlier work
[1] = system: T cells in presence of SU-DHL-4 cells; assay: In vitro T-cell activation assay, T cells incubated with SU-DHL-4 cells; assay type: cell-based, human; details: SU-DHL-4 target cells
Method: (§2) Briefly, Human Burkitt lymphoma (Raji [ATCC, cat. no. CCL-86]) and DLBCL (SU-DHL-4 [Deutsche Sammlung von Mikroorganismen and Zellkulturen—DSMZ, cat. no. ACC-495]) cell lines were used as target cells. Cells were cultured in culture medium (RPMI 1640 with HEPES and L-Glutamine supplemented with 10% heat-inactivated donor bovine serum with iron, and 1% [v/v] penicillin/streptomycin) to which 2 mM L-glutamine, and 1 mM sodium pyruvate were added, at 37° C., 5% CO2. T cells, which were isolated from human healthy donor buffy coats by negative selection using the RosetteSep™ Human T Cell Enrichment Cocktail (Stemcell Technologies) followed by density centrifugation over a Ficoll gradient, both according to the manufacturer's instructions, were used as effector cells. Isolated cells were washed twice in phosphate buffered saline (PBS) and counted using acridine orange/propidium iodide (AO/PI) viability staining solution (Nexcelom Bioscience) on a Cellometer® Auto 2000 Cell Viability Counter. T cells (100,000 cells/well) were incubated with Raji or SU-DHL-4 cells (50,000 cells/well) in culture medium in the presence of epcoritamab (0.033 pg/mL-333 ng/mL) and bendamustine (0-20 μM) at 37° C., 5% CO2 for 48 hours. B-cell viability and T-cell activation were measured by flow cytometry (count of CD22-positive cells; expression of the activation markers CD69, CD25, and CD107 [LAMP-1] on CD4+ and CD8+ T cells). The percentage cytotoxicity was calculated as follows: % cytotoxicity=100−([cell countsample/cell countno antibody]×100%)

R/R B-NHL patients = assay: Ongoing clinical trial of epcoritamab monotherapy (NCT03625037); assay type: in vivo, human; details: preliminary data
Source text: Epcoritamab as monotherapy is currently in a clinical trial for the treatment of relapsed/refractory (R/R) B-NHL (ClinicalTrials.gov Identifier: NCT03625037).

[2] = system: CD20-expressing Raji-luc tumor cells; details: NOD-SCID mice injected with Raji-luc tumor cells and PBMCs; even in presence of excess IgG1-RTX-FEAR; cited from earlier work
[3] = system: primary DLBCL and follicular lymphoma patient biopsies; details: biopsies taken a certain time after anti-CD20 antibody administration; cited from earlier work
[4] = system: T cells in presence of Raji cells; assay: In vitro T-cell activation assay, T cells incubated with Raji cells; assay type: cell-based, human; details: Raji target cells
Method: as §2

CD20 = biological target: T1, CD20 (Homo sapiens, UniProt P11836); details: rituximab versus IgG1-CD20; different epitopes; cited from earlier work
T1 sequence (P11836 1-297): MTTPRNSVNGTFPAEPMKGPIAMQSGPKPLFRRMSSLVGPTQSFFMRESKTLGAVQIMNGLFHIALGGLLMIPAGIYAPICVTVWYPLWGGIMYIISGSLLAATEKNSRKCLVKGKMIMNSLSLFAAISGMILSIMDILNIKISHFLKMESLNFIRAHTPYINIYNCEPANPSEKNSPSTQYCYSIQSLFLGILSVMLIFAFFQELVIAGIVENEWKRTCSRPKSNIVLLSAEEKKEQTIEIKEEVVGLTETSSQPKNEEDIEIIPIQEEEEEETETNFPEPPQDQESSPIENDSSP

[5] = bendamustine 0-20 μM, data not shown
[6] = epcoritamab 0.033 pg/mL-333 ng/mL, 48 hours

Which results are given for Cn1c(CCCC(=O)O)nc2cc(N(CCCl)CCCl)ccc21 [bendamustine, 4-[5-[Bis(2-chloroethyl)amino]-1-methyl-1H-benzo[d]imidazole-2-yl]butanoic acid]?
number of viable B cells (SU-DHL-4 cells): decreased the number of viable B cells in a dose dependent manner; number of viable B cells (Raji cells): decreased the number of viable B cells in a dose dependent manner

Which “1-year PFS” value (follicular lymphoma) does the source give for CC[C@H](Nc1ncnc2[nH]cnc12)c1nc2cccc(F)c2c(=O)n1-c1ccccc1 [idelalisib] here?
The value was 43%.

And the toxicities (follicular lymphoma)?
Its toxicities is “several toxicities leading to treatment discontinuation”.

Which “epcoritamab-induced T-cell activation in presence of bendamustine” value ([1]; bendamustine 0-20 μM, 48 hours) does the source give for “Epcoritamab: IgG1 bispecific CD3xCD20 antibody, heavy/light chains SEQ ID NOs: 24, 25 and 26, 27; CAS 2134641-34-0” here?
The value was “not affected by the presence of bendamustine at all concentrations tested”.

And the “upregulation of activation markers on CD4+ T cells in presence of bendamustine” value [1, 5]?
The value was “not affected by bendamustine”.

What about the “activation of CD8+ T cells (CD69, CD25, LAMP-1 upregulation)” value [1, 6] of the same molecule?
Its value is “induced concentration-dependent activation of CD8+ T cells”.

What about the tolerability (R/R B-NHL patients) of the same molecule?
Its tolerability is “tolerated at doses up to at least 48 mg, including 60 mg”.

And the tumor growth [2]?
Its tumor growth is “effectively reduce tumor growth”.

What about the T-cell-mediated cytotoxicity [3] of the same molecule?
The T-cell-mediated cytotoxicity was “induced T-cell-mediated cytotoxicity”.

What about the “epcoritamab-induced T-cell activation in presence of bendamustine” value ([4]; bendamustine 0-20 μM, 48 hours) of the same molecule?
The value was “not affected by the presence of bendamustine at all concentrations tested”.

And the “upregulation of activation markers on CD4+ T cells in presence of bendamustine” value [4, 5]?
The value was “not affected by bendamustine”.

And the “activation of CD8+ T cells (CD69, CD25, LAMP-1 upregulation)” value [4, 6]?
The value was “induced concentration-dependent activation of CD8+ T cells”.

With “IgG1-CD20: CD20 antibody of which the CD20 arm of epcoritamab is derived” as the molecule, how does the “competition for CD20 binding” value (CD20) read?
The value was “compete for CD20 binding”.
